In the NIST ThermoML archive (doi:10.1021/je100313a):
Several values for one entry are separate records, joined by “and”; a condition that tells them apart may be missing. Equal entries are not always repeated.

Experiments:
[1] = 101 kPa, Liquid
[2] = xn = mol fraction of the nth substance listed; details: 101 kPa, Liquid

CCCCCCCCCCC [undecane]
[1]
Details | mass density [kg/m3] | viscosity [mPa·s]
293.15 K | 740.4 | 1.199
298.15 K | 736.7 | 1.099
303.15 K | 733 | 1.022
313.15 K | 725.6 | 0.878

C1C[C@@H]2[C@H]3CC[C@H](C3)[C@@H]2C1 [exo-tetrahydrodicyclopentadiene]
[1]
Details | mass density [kg/m3] | viscosity
293.15 K | 935.3 | 3.076 mPa·s and 3.077 mPa·s
298.15 K | 931.4 | 2.784 mPa·s
303.15 K | 927.5 | 2.525 mPa·s
313.15 K | 919.6 | 2.112 mPa·s

C1C[C@@H]2[C@H]3CC[C@H](C3)[C@@H]2C1 [exo-tetrahydrodicyclopentadiene] + CCCCCCCCCCC
[2]
Details | mass density, 293.15 K [kg/m3] | mass density, 298.15 K [kg/m3] | mass density, 303.15 K [kg/m3] | mass density, 313.15 K [kg/m3] | viscosity, 293.15 K [mPa·s] | viscosity, 298.15 K [mPa·s] | viscosity, 303.15 K [mPa·s] | viscosity, 313.15 K [mPa·s]
x2 = 0 | 935.3 | 931.4 | 927.5 | 919.6 | 3.076 | 2.784 | 2.525 | 2.112
x2 = 0.0881 | 911.7 | 907.8 | 903.9 | 896.1 | 2.697 | 2.439 | 2.228 | 1.856
x2 = 0.1777 | 889.3 | 885.4 | 881.6 | 873.8 | 2.39 | 2.162 | 1.982 | 1.662
x2 = 0.2711 | 867.6 | 863.7 | 859.9 | 852.1 | 2.135 | 1.937 | 1.78 | 1.499
x2 = 0.3669 | 846.8 | 843 | 839.2 | 831.5 | 1.921 | 1.751 | 1.615 | 1.362
x2 = 0.4654 | 827 | 823.1 | 819.3 | 811.7 | 1.747 | 1.594 | 1.47 | 1.246
x2 = 0.5658 | 808.2 | 804.4 | 800.6 | 793 | 1.608 | 1.47 | 1.359 | 1.158
x2 = 0.6685 | 790.3 | 786.6 | 782.8 | 775.2 | 1.483 | 1.358 | 1.256 | 1.074
x2 = 0.778 | 772.6 | 768.9 | 765.2 | 757.7 | 1.373 | 1.259 | 1.167 | 1
x2 = 0.8855 | 756.5 | 752.7 | 749 | 741.6 | 1.284 | 1.177 | 1.093 | 0.941

C1C[C@@H]2[C@H]3CC[C@H](C3)[C@@H]2C1 [exo-tetrahydrodicyclopentadiene] + CCCCCCCCCCCCCC
[2]
Details | mass density, 293.15 K [kg/m3] | mass density, 298.15 K [kg/m3] | mass density, 303.15 K [kg/m3] | mass density, 313.15 K [kg/m3] | viscosity, 293.15 K [mPa·s] | viscosity, 298.15 K [mPa·s] | viscosity, 303.15 K [mPa·s] | viscosity, 313.15 K [mPa·s]
x2 = 0 | 935.3 | 931.4 | 927.5 | 919.6 | 3.077 | 2.784 | 2.525 | 2.112
x2 = 0.0703 | 914.6 | 910.8 | 906.9 | 899.2 | 2.961 | 2.679 | 2.429 | 2.034
x2 = 0.1451 | 894.8 | 891 | 887.1 | 879.5 | 2.857 | 2.582 | 2.343 | 1.958
x2 = 0.2274 | 875.5 | 871.7 | 868 | 860.4 | 2.766 | 2.496 | 2.259 | 1.888
x2 = 0.2692 | 866.5 | 862.7 | 859 | 851.4 | 2.724 | 2.456 | 2.223 | 1.857
x2 = 0.4088 | 839.5 | 835.8 | 832.1 | 824.7 | 2.609 | 2.35 | 2.125 | 1.777
x2 = 0.5067 | 823.2 | 819.5 | 815.9 | 808.5 | 2.544 | 2.291 | 2.072 | 1.734
x2 = 0.616 | 807 | 803.4 | 799.8 | 792.5 | 2.487 | 2.243 | 2.028 | 1.698
x2 = 0.7324 | 791.7 | 788.2 | 784.6 | 777.4 | 2.438 | 2.197 | 1.983 | 1.663
x2 = 0.8606 | 776.9 | 773.4 | 769.8 | 762.7 | 2.39 | 2.151 | 1.94 | 1.629

CCCCCCCCCCC [undecane] + C1C[C@@H]2[C@H]3CC[C@H](C3)[C@@H]2C1
[2], x1 = 1
Details | mass density [kg/m3] | viscosity [mPa·s]
293.15 K | 740.4 | 1.199
298.15 K | 736.7 | 1.099
303.15 K | 733 | 1.022
313.15 K | 725.6 | 0.878

CCCCCCCCCCCCCC [tetradecane] + C1C[C@@H]2[C@H]3CC[C@H](C3)[C@@H]2C1
[2], x1 = 1
Details | mass density [kg/m3] | viscosity [mPa·s]
293.15 K | 762.9 | 2.346
298.15 K | 759.2 | 2.107
303.15 K | 755.7 | 1.897
313.15 K | 748.6 | 1.594

CCCCCCCCCCCCCC [tetradecane]
[1]
Details | mass density [kg/m3] | viscosity [mPa·s]
293.15 K | 762.9 | 2.346
298.15 K | 759.2 | 2.107
303.15 K | 755.7 | 1.897
313.15 K | 748.6 | 1.594
